In EP0337503B1, “Fumigation methods and compositions” (Entek Corporation, priority 1983, dated 1984):

Experiments:
[1] = tested on: Sclerotium rolfsii; test: Fungicidal test, radial growth of mycelia colonies; assay type: cell-based
Method: (§1) Thiocarbonate solutions are used in a test of their fungicidal properties. Cultures of four plant pathogenic fungi are grown upon potato dextrose agar at room temperature, in diffuse natural lighting. After one week, square blocks having 2 millimeter sides are cut from the edges of actively growing mycelia spots on the agar.
(§2) The blocks are immersed in sterile deionized water, as a control, or in dilutions of thiocarbonate solutions using the sterile water, in a closed container. Subsequently, the blocks are removed and placed upon agar in clean plates, and mycelia are allowed to grow for one week.
(§3) Radial growth of mycelia colonies is measured for each of the six to eight replicate plates used for a particular fungus, and average colony radius is calculated. Percent control is defined by the following equation: Percent control =[1-((Average radius of treated plates)/(Average radius of control plates))]x100 [formula]
(§4) Concentrations given for solutions used to treat the agar blocks are expressed in grams of thiocarbonate solution per liter of diluted solution.

[2] = tested on: Phytophthora cinnamomi; test: Fungicidal test, radial growth of mycelia colonies; assay type: cell-based
Method: as §1, §2, §3, §4

[3] = tested on: Verticillium dahliae; test: Fungicidal test, radial growth of mycelia colonies; assay type: cell-based
Method: as §1, §2, §3, §4

[4] = tested on: Fusarium oxysporum; test: Fungicidal test, radial growth of mycelia colonies; assay type: cell-based; conditions: listed as CaCS4 (2.8%CS2)
Method: as §1, §2, §3, §4

[5] = tested on: root-knot nematode larvae (Meloidogyne incognita); test: Greenhouse nematocide experiment with tomato plants, soil drench, root gall count; assay type: in vivo; conditions: 30 days; for Gall Counts, replicate 3: control 1; for Gall Counts, Mean: control 4.0; for Gall Counts, replicate 2: control 7; for Gall Counts, replicate 1: control 4
Method: In the experiment, thirty containers are used, each containing about 500 grams of sterilized sandy loam soil. Each container contains one tomato plant. Each container is injected with four 5-milliliter portions of extract from nematode-infested pepper roots, one inch below the soil surface, producing an initial population of 2000 root-knot nematode larvae (Meloidogyne incognita) per container.
Ten treatments are replicated three times, each treatment consisting of drenching the soil with a solution containing the fumigant to provide the dosage of CS2 given in the following table. The solutions are diluted with sufficient water to saturate the soil. The treatments include calcium tetrathiocarbonate, stabilized ammonium tetrathiocarbonate, and carbon disulfide at three levels, plus an untreated control. After drenching, each container is allowed to stand at ambient conditions. The plants are harvested after 30 days of growth, and soil is removed from the roots by a gentle washing with water. By use of a magnifying glass, the number of root galls is counted on each plant.
Results are summarized below, wherein the "Application" represents milligrams of treatment per kilogram of soil, calculated as the thiocarbonate salt and the equivalent carbon disulfide. Gall counts are mean values from the three replicates.

[6] = tested on: nematode larvae; test: In-vitro nematocidal test: larvae treated in aqueous suspension, injected into root zone of tomato plants, gall count; assay type: in vivo, Meloidogyne incognita; conditions: larvae treated 1 hour; for Gall Count, replicate 2: control 88; for Gall Count, Mean: control 89; for Gall Count, replicate 1: control 90
Method: The procedure of Example 2 is repeated except that potassium tetrathiocarbonate is substituted for stabilized ammonium tetrathiocarbonate and an in-vitro nematocidal test is used. In the in-vitro test, the nematode larvae are treated in aqueous suspension for 1 hour at the concentrations of fumigant given in the following table, washed twice with water, and injected into the active root zone of the tomato plants. After thirty days the roots are harvested, examined for galling, giving the results summarized below.

[7] = Storage stability: loss of ability of aqueous solutions to generate carbon disulfide upon contact with strong acid; assay type: physicochemical; conditions: aqueous solutions of tetrathiocarbonate salts, about 14 to about 16 percent by weight carbon disulfide equivalent, air-tight glass containers, 49° C.; listed as Ca^++
Method: Various tetrathiocarbonate salts are evaluated for storage stability by measuring the loss of the ability of aqueous solutions thereof to generate carbon disulfide upon contact with strong acid. Aqueous solutions of the salts listed in the following table, having an equivalent of from about 14 to about 16 percent by weight carbon disulfide, are stored in air-tight glass containers at a temperature of 49° C.

[8] = Effect of pH on production of CS2 from thiocarbonates in citrate-phosphate buffers, gas chromatography of air; assay type: physicochemical
Method: Pure carbon disulfide is also injected, for comparison. A syringe is used to periodically sample air in the bottle, and the air is analyzed by gas chromatography.

[9] = Decomposition in sandy loam soil at different moisture, CS2 in air space by gas chromatography; assay type: physicochemical; conditions: hours to maximum CS2 concentration in the air space
Method: A sandy loam soil is placed in 1-liter glass bottles, fitted with stoppers having fluorocarbon liners and silicone rubber septa, to give a soil depth of about 4 cm. […] Thiocarbonate solution or carbon disulfide is injected near the bottom of the soil layer, the bottles are promptly sealed, and the air space in the bottles is sampled at intervals with a syringe, for gas chromatographic analysis of CS2. Results are summarized below, wherein degradation time is the number of hours required to achieve the maximum CS2 concentration in the air space.

[10] = 1 g/l, listed as CaCS4 (2.8%CS2)
[11] = 10 g/l, listed as CaCS4 (2.8%CS2)
[12] = highest application: 638/89 ppm ((NH4)2CS4·(NH4)2S), 730/91 (CaCS4), 97 ppm (CS2)
[13] = lowest application: 213/30 ppm ((NH4)2CS4·(NH4)2S), 245/31 (CaCS4), 32 ppm (CS2)
[14] = middle application: 425/60 ppm ((NH4)2CS4·(NH4)2S), 490/61 (CaCS4), 65 ppm (CS2)
[15] = 50 ppm salt (6.3 ppm CS2 equiv. CaCS4; 6.5 ppm K2CS4)
[16] = 100 ppm salt (12.5 ppm CS2 equiv. CaCS4; 13 ppm K2CS4)
[17] = 150 ppm salt (18.8 ppm CS2 equiv. CaCS4; 19.5 ppm K2CS4)

S=C(S)SS [CaCS4, calcium tetrathiocarbonate]
Percent Control Sclerotium rolfsii [1, 10]: 46% | Percent Control Sclerotium rolfsii [1, 11]: 62% | Percent Control Sclerotium rolfsii ([1]; 100 g/l): 100% | Percent Control Phytophthora cinnamomi [2, 10]: 56% | Percent Control Phytophthora cinnamomi [2, 11]: 56% | Percent Control Phytophthora cinnamomi ([2]; 100 g/l): 100% | Percent Control Verticillium dahliae [3, 10]: 13% | Percent Control Verticillium dahliae [3, 11]: 22% | Percent Control Verticillium dahliae ([3]; 100 g/l): 100% | Percent Control Fusarium oxysporum ([4]; 1 g/l): 3% | Percent Control Fusarium oxysporum ([4]; 10 g/l): 18% | Percent Control Fusarium oxysporum ([4]; 100 g/l thiocarbonate solution per liter of diluted solution): 100% | Gall Counts, replicate 3 [5, 12]: 9 | Gall Counts, Mean [5, 12]: 7.0 | Gall Counts, replicate 2 [5, 12]: 9 | Gall Counts, replicate 1 ([5]; highest application: 638 ppm salt/89 ppm Eq. CS2 ((NH4)2CS4·(NH4)2S), 730/91 (CaCS4), 97 ppm (CS2)): 3 | Gall Counts, replicate 3 [5, 13]: 23 | Gall Counts, Mean [5, 13]: 15.7 | Gall Counts, replicate 2 [5, 13]: 8 | Gall Counts, replicate 1 ([5]; lowest application: 213 ppm salt/30 ppm Eq. CS2 ((NH4)2CS4·(NH4)2S), 245/31 (CaCS4), 32 ppm (CS2)): 16 | Gall Counts, replicate 3 [5, 14]: 7 | Gall Counts, Mean [5, 14]: 7.3 | Gall Counts, replicate 2 [5, 14]: 4 | Gall Counts, replicate 1 ([5]; middle application: 425 ppm salt/60 ppm Eq. CS2 ((NH4)2CS4·(NH4)2S), 490/61 (CaCS4), 65 ppm (CS2)): 11 | Gall Count, replicate 2 [6, 15]: 149 | Gall Count, Mean [6, 15]: 167 | Gall Count, replicate 1 [6, 15]: 185 | Gall Count, replicate 2 [6, 16]: 184 | Gall Count, Mean [6, 16]: 158 | Gall Count, replicate 1 [6, 16]: 132 | Gall Count, replicate 2 [6, 17]: 66 | Gall Count, Mean [6, 17]: 49 | Gall Count, replicate 1 [6, 17]: 32 | Half-life (months) [7]: 5.0 months | Half-life (minutes) for production of carbon disulfide ([8]; pH 5.2, 125 milligrams per liter of thiocarbonate ion): 1 min | Half-life (minutes) for production of carbon disulfide ([8]; pH 6.0, 125 milligrams per liter of thiocarbonate ion): 1.8 min | Half-life (minutes) for production of carbon disulfide ([8]; pH 7.0, 125 milligrams per liter of thiocarbonate ion): 2.7 min | Half-life (minutes) for production of carbon disulfide ([8]; pH 8.0, 125 milligrams per liter of thiocarbonate ion, CaCS4 values above pH 7 called unreliable): 8.0 min | Half-life (minutes) for production of carbon disulfide ([8]; pH 9.0, 125 milligrams per liter of thiocarbonate ion, CaCS4 values above pH 7 called unreliable): 11.3 min | Degradation Time ([9]; Soil Moisture 0 % of Saturation): 4 h | Degradation Time ([9]; Soil Moisture 50 % of Saturation): 5 h | Degradation Time ([9]; Soil Moisture 100 % of Saturation): 48 h
